The text below walks through data of patent publication US8921405B2, “Compounds” (Orexo AB, priority 2009, dated 2014).

The target of the test is T1, recombinant human mPGES-1 (Homo sapiens, UniProt O14684).
T1 construct: made in house; host or cells: Rosetta E. coli (membrane/microsome fraction)
T1 sequence (O14684 1-152): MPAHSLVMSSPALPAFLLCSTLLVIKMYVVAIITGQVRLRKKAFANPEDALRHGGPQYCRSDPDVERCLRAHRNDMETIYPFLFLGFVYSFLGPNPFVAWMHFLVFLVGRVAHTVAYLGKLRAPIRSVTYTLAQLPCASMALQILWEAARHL
Nature of the test: mPGES-1 HTRF assay (inhibition of PGE2 formation from PGH2). The test is classed as biochemical. The conditions noted are these: HTRF assay. The procedure, abridged: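 Microsomes of E. coli expressing human mPGES-1, in 0.1 M KPi pH 7.4 with 2.5 mM GSH, preincubated 25 min at room temperature with inhibitor, then given PGH2 for 1 min before FeCl2 acidic stop. PGE2 quantified by HTRF (665/620 nm ratio) against synthetic PGE2 standard curve; percent inhibition versus controls.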
For orientation: Time-resolved FRET reads energy transfer from a long-lived donor to a nearby acceptor.
With `COc1cc2[nH]c(Nc3cc(CNC(=O)C4(O)CC4)ccc3C(F)(F)F)nc2cc1C(=O)N[C@H]1CC[C@H](C(F)(F)F)CC1` [Example 94, N-(trans-4-Trifluoromethyl-cyclohex-1-yl)-2-(2-trifluoromethyl-5-{[(1-hydroxy-cyclopropane-carbonyl)amino]-methyl}-phenylamino)-6-methoxy-1H-benzimidazole-5-carboxylic acid amide], the IC50 was found to be 3 nM.
The figure for `Cn1c(Nc2cc(CNC(=O)C(C)(C)C)ccc2C(F)(F)F)nc2cc(C(=O)N[C@H]3CC[C@H](C(F)(F)F)CC3)c(OCC(F)F)cc21` [Example 95, N-(trans-4-Trifluoromethyl-cyclohex-1-yl)-1-methyl-2-(2-trifluoromethyl-5-{[(tert-butylcarbonyl)-amino]-methyl}-phenylamino)-6-(2,2-difluoro-ethoxy)-1H-benzimidazole-5-carboxylic acid amide] is 1 nM; for `CC(C)(C)C(=O)NCc1ccc(C(F)(F)F)c(Nc2nc3cc(C(=O)N[C@H]4CC[C@H](C(F)(F)F)CC4)c(OCC(F)F)cc3[nH]2)c1` [Example 96, N-(trans-4-Trifluoromethyl-cyclohex-1-yl)-2-(2-trifluoromethyl-5-{[(tert-butylcarbonyl)-amino]-methyl}-phenylamino)-6-(2,2-difluoro-ethoxy)-1H-benzimidazole-5-carboxylic acid amide] it is 1 nM.
As to `Cn1c(Nc2cc(CNC(=O)C(C)(C)C)ccc2Cl)nc2cc(C(=O)N[C@H]3CC[C@H](C(F)(F)F)CC3)c(OCCF)cc21` [Example 97, N-(trans-4-Trifluoromethyl-cyclohex-1-yl)-1-methyl-2-(2-chloro-5-{[(tert-butylcarbonyl)-amino]-methyl}-phenylamino)-6-(2-fluoro-ethoxy)-1H-benzimidazole-5-carboxylic acid amide], the IC50 was determined as 5 nM.
The result for `Cn1c(Nc2cc(CNC(=O)C(C)(C)C)ccc2Cl)nc2cc(C(=O)N[C@H]3CC[C@H](C(F)(F)F)CC3)c(OCC(F)(F)F)cc21` [Example 98, N-(trans-4-Trifluoromethyl-cyclohex-1-yl)-1-methyl-2-(2-chloro-5-{[(tert-butylcarbonyl)-amino]-methyl}-phenylamino)-6-(2,2,2-trifluoro-ethoxy)-1H-benzimidazole-5-carboxylic acid amide] reads 6 nM; that for `COc1ccc(CNC(=O)C(C)(C)C)cc1Nc1nc2cc(C(=O)N[C@H]3CC[C@H](C(F)(F)F)CC3)c(Cl)cc2[nH]1` [Example 99, N-(trans-4-Trifluoromethyl-cyclohex-1-yl)-2-(2-methoxy-5-{[(tert-butylcarbonyl)-amino]-methyl}-phenylamino)-6-chloro-1H-benzimidazole-5-carboxylic acid amide], more than 100 nM.
`CC(C)(C)C(=O)NCc1ccc(Cl)c(Nc2nc3cc(C(=O)Nc4ccc(Br)cc4)c(OCC(F)F)cc3n2CC(F)F)c1` [Example 100, N-(4-Bromo-phenyl)-2-(2-chloro-5-{[(tert-butylcarbonyl)-amino]-methyl}-phenylamino)-6-(2,2-difluoro-ethoxy)-1-(2,2-difluoroethyl)-1H-benzimidazole-5-carboxylic acid amide]: the IC50 stood at 5 nM.

What is called IC50 is the concentration that inhibits the measured activity by half.
